Assay results published in patent US12162892B2, “CD16a binding agents and uses thereof” (KLEO PHARMACEUTICALS, INC., priority 2018, dated 2024).
pKd: −log10 of the molar value. Values joined by “and” are separate entries in the source; they are usually repeats but may differ in a detail not shown here. Equal entries are not always repeated.

How the values were obtained:
CD16a158F [1] = target: T1, CD16a158F (Homo sapiens, UniProt P08637); assay: Microscale Thermophoresis; format: binding; design: purchased Acro Biosystems CDA-H82E8; conditions: read-out: MST-CD16a158F KD
T1 sequence (P08637 17-208 limits assumed): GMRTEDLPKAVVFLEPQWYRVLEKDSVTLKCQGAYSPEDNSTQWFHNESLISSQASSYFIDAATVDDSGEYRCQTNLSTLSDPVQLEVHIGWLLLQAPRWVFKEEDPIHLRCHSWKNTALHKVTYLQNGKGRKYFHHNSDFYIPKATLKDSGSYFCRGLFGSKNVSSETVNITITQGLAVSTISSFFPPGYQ
Experimental: Target proteins (poly-histidine tagged, 600 nM) were fluorescently labeled combination with an equal volume of dye (200 nM, His-Tag labeling kit RED-tris-NTA NanoTemper: MO-L008) PBST. The mixture rotated in the dark for 45 min before being spun down at 12000 rpm for 15 min to remove uncomplexed material. The fluorescence of the removed supernatant was adjusted to for a test concentration of 40-80 nM (2× the final measured). Test ligands were prepared across a 12-point dilution series in a 96-well PCR plate at a volume of 20 uL at 2× the concentration desired for testing (0.2% BSA in PBST). The dilution series was then combined with an equal volume of the labeled target at 2× the concentration desired for testing. Capillaries were added to the wells of the combined target/ligand complex and measured by MST. Measurements were taken using a Nanotemper Monolith NT.115, and the data was analyzed using NanoTemper MO.Control software.

CD32b [2] = target: T2, CD32b (Homo sapiens, UniProt P31994); assay: Biotin ELISA, interaction with various receptors (Example 55); format: binding; conditions: three replicate values per compound
T2 sequence (P31994 43-310): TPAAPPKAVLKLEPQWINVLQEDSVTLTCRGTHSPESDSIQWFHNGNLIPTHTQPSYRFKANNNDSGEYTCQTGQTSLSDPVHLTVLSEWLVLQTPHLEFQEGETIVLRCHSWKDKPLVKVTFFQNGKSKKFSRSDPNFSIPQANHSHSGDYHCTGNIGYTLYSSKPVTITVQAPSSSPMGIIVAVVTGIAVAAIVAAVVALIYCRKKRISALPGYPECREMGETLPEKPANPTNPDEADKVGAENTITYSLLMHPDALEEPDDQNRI
Method in brief: (§1)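 Antibodies reacted with compounds through reactive groups, alongside DMSO-treated and untreated antibody references, were tested for receptor interaction on biotin-ligand/neutravidin plates. Signal came from streptavidin-HRP chemiluminescence.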

CD64 = CD64 (Homo sapiens, UniProt P12314); assay: as above; format: binding; conditions: three replicate values per compound
Chain of CD64 (P12314 16-374): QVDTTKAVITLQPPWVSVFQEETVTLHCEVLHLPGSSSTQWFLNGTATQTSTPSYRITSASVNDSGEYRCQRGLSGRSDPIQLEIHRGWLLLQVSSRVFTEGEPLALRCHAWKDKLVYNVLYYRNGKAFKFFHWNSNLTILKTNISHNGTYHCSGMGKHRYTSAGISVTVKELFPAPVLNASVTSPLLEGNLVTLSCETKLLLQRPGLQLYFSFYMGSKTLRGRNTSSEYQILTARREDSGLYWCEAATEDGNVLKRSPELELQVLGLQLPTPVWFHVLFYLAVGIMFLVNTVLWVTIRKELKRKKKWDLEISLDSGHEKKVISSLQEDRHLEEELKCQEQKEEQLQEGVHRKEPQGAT
Method in brief: as §1

CD16a158V [3] = target: T3, CD16a158V (Homo sapiens, UniProt P08637, F176V); assay: as above; format: binding; conditions: three replicate values per compound
T3 sequence (P08637 17-208 F176V): as the sequence (P08637 17-208 limits assumed) above, with F160V counted along it
Method in brief: as §1

CD32a-R167 [4] = assay: as above; format: binding; conditions: three replicate values per compound
Method in brief: as §1

CD32a H167 [5] = target: T4, CD32a H167 (Homo sapiens, UniProt P12318); assay: as above; format: binding; conditions: three replicate values per compound
T4 sequence (P12318 36-218 limits assumed): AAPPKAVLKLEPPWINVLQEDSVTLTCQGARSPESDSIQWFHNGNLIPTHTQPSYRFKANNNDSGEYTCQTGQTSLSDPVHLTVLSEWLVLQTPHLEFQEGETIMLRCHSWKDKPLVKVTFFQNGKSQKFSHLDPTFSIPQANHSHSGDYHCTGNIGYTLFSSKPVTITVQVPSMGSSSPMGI
Method in brief: as §1

CD16a158F [6] = target: T1, CD16a158F; assay: as above; format: binding; conditions: three replicate values per compound
Method in brief: as §1

CD3ed [7] = target: T5, CD3ed (Homo sapiens, UniProt P04234+P07766); assay: as above; format: binding; conditions: three replicate values per compound
T5 sequence (P07766 23-126 limits assumed): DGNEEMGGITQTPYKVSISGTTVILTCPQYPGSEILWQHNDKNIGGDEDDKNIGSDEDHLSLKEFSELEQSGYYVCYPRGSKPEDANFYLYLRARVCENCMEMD
T5 sequence (P04234 22-105 limits assumed): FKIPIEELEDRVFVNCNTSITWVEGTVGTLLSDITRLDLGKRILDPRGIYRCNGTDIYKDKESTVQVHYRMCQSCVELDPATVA
Method in brief: as §1

[8] = Biotin ELISA, No Protein (Example 55); format: binding; conditions: three replicate values per compound
Method in brief: as §1

CD16a158V [9] = target: T3, CD16a158V; assay: Biotinylated Ligand ELISA Assay; format: binding; conditions: Biotinylated CD16a protein at 10 nM
Method in brief: (§2)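 Neutravidin-coated plates, BSA-blocked, loaded with biotinylated ligands 1 h at 25° C., free sites blocked with 100 μM biotin. Bound protein detected with streptavidin-HRP 1 h at 25° C. and chemiluminescent substrate for 5 min; luminescence read.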

CD16a158F [10] = target: T1, CD16a158F; assay: Biotinylated Ligand ELISA Assay; format: binding; design: purchased Acro Biosystems CDA-H82E8; conditions: Biotinylated CD16a protein at 10 nM
Method in brief: as §2

CD32b [11] = target: T2, CD32b; assay: MATE ELISA, interaction with various receptors (Example 55); format: binding; conditions: Table 11; three replicate values
Experimental: (§3) Coat ELISA plates (Costar 3922) using Neutravidin (Thermo 31000) at 5 μg/ml in PBS (100 μl/well) for 1 hour at 37° C. Plates were washed 4 times with PBST (PBS, 0.05% Tween 20-200 μl, 1 minute/wash) then blocked using 200 μl 5% bovine serum albumin (BSA, Heat Shock, Fraction V-American Bio AB01088-00100) in PBST for 2 hours at 25° C. with moderate shaking. BSA was removed and plates were washed. […] Protein was removed and plates were washed. MATE labeled antibodies diluted to 1 μg/ml in PBSTB (100 μl/well) were added and incubated for 1 hour at 25° C. with gentle shaking. Wash plates. HRP labeled Mouse Anti-Human IgG, F(ab′)2 (Jackson Immuno Research 209-035-097) diluted 1:2500 in PBSTB was added (100 μl/well) and incubated for 1 hour at 25° C. with gentle shaking. Wash plates. Substrate (Super Signal ELISA Pico Chemiluminescent Substrate-Thermo 37069) was added (100 μl/well) and plates were incubated for 5 minutes at 25° C. with gentle shaking. Luminescence was then measured on the Biotek Synergy H1 microplate reader.
(§4) In some embodiments, “stock” is antibody only, and “control” is an antibody that went through the same procedure except using DMSO only as opposed to a compound. When contacted with targeting moieties such as antibodies in the Examples, compounds, e.g., I-95, I-96, etc. can react through their reactive groups
(§5) [drawing 887] with reactive groups of targeting moieties (e.g., —NH2) to form conjugates by forming amide groups (—C(O)NH—).

CD16a 158V = assay: as above; format: binding; conditions: Table 11; three replicate values
Experimental: as §3, §4, §5

CD32a-R167 [12] = assay: as above; format: binding; conditions: Table 11; three replicate values
Experimental: as §3, §4, §5

CD38 = CD38 (Homo sapiens, UniProt P28907); assay: as above; format: binding; conditions: Table 11; three replicate values
Experimental: as §3, §4, §5

CD32a H167 [13] = target: T4, CD32a H167; assay: as above; format: binding; conditions: Table 11; three replicate values
Experimental: as §3, §4, §5

CD16a158F [14] = target: T1, CD16a158F; assay: as above; format: binding; conditions: Table 11; three replicate values
Experimental: as §3, §4, §5

CD16b = CD16b (Homo sapiens, UniProt O75015); assay: as above; format: binding; conditions: Table 11; three replicate values
Chain of CD16b (O75015 17-200): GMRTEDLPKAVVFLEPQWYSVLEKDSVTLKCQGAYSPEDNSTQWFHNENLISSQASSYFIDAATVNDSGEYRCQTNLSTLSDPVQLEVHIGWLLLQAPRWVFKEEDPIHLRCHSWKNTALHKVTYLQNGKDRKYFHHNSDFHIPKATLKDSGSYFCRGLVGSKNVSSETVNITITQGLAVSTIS
Experimental: as §3, §4, §5

CD3ed [15] = target: T5, CD3ed; assay: as above; format: binding; conditions: Table 11; three replicate values
Experimental: as §3, §4, §5

CD16a158V [16] = assay: CD16a-MATE ELISA; format: binding; conditions: Carbohydrate Conjugated MATEs; relative to Rituximab; Antibodies tested at 2 ug/mL
CD16a158F [17] = target: T1, CD16a158F; assay: CD16a-MATE ELISA; format: binding; design: purchased Acro Biosystems CDA-H82E8; conditions: Carbohydrate Conjugated MATEs; relative to Rituximab; Antibodies tested at 2 ug/mL
primary monocytes = assay: ADCP assay using fresh primary monocytes; format: cell-based, human; conditions: beads loaded with test compound at 50 uM; 37C for 18 hrs
Experimental: (§6) Biotinylated fluorescent beads (Invitrogen, cat #P35372) were thoroughly mixed by vortexing for 1 min. Ten microliters of supplied bead suspension per treatment type were dispensed in Eppendorf tubes, and washed with 1 ml PBS […], then re-suspended in 500 uL of 1% BSA in PBS. Test compounds were added to bead suspensions to a final concentration of 50 uM, and biotinylated human IgG whole molecule (Rockland 009-0602) final concentration of 20 ug/mL.
(§7) Tubes were incubated at room temperature for 1 hr on a rocking platform.
(§8) Following incubation, beads were pelleted in a microcentrifuge at 12,000 g for 5 minutes at room temperature. Supernatants were carefully aspirated and beads were washed 5 times by resuspending in 1 ml of PBS 1% BSA, and centrifuging as described above. Finally, beads were resuspended in 500 ul of PBS 1% BSA and used in ADCP assay.
PBMC, freshly isolated from whole blood (Bioreclamation IVT0) using Ficoll-Paque density centrifugation were resuspended in serum-free, supplemented RPMI at 2×10^6 cells/mL.
Ten milliliters of the resulting cell suspension was seeded into 75-cm^2 tissue culture flask (Denville Scientific TC9341) and incubated 2-3 hr at 37° C. 5% CO2 to allow cell adhesion. Following incubation, media was decanted and surface of the flask was carefully washed twice, each time with 10 ml serum-free, supplemented RPMI to remove any residual non-adherent cells. To remove adherent cells, 10 mL of ice-cold 2.5 mM EDTA/PBS solution was added for 10 min on ice. Cells were transferred to a 15-ml conical tube and centrifuge 10 min at 300×g, room temperature, to remove the EDTA/PBS solution. Monocytes were then resuspended in RPMI 10% FCS at 5×10^5 cells/mL to be used in ADCP assay. Monocyte purity was assessed by staining cells with antibodies to human CD3 FITC (Biolegend 300306), CD19 PeCy7 (Biolegend 302216), CD14 BV421 (BD Biosciences, 565283), and CD16 (Biolegend 302046).
(§9) Monocytes or THP-1 cells (TIB-202 ATCC) were seeded into 96 well round bottom 96 well plates at the density of 10^5 cells per well in 200 ul, and 10 uL of fluorescent bead suspension prepared as described above was added to each well. Well contents were mixed by pipetting up and down using a multichannel pipet, and plates were incubated at 37C for 18 hrs. After incubation, well contents were transferred into flat bottom black 96 well plates (Costar #3358) and centrifuged for 2 minutes at 300 g to allow for better visualization of the cells. Images were taken using Zoe fluorescent cell imager (Biorad).

[18] = tested on: CD16a negative THP1 cells; assay: ADCP assay using THP-1 cells; format: cell-based; conditions: beads loaded with test compound at 50 uM; 37C for 18 hrs
Experimental: as §6, §7, §8, §9

Compound: O=C(CCCC[C@@H]1SC[C@@H]2NC(=O)N[C@@H]21)NCCOCCOCCOCCOCCOCCOCCOCCOCCn1cc(-c2ccc(NC(=O)C3CC(=O)N(c4cc(F)ccc4F)C3)cc2)nn1 (some centres unmarked) [Compound I-31]
- pKd (CD16a158F [1]): 6.00 to 6.30
- Biotin ELISA Results CD32b (CD32b [2]): 3983 and 3476 and 6119
- Biotin ELISA Results CD64 (CD64): 68732 and 70002 and 48114
- Biotin ELISA Results CD16a-158V (CD16a158V [3]): 2241 and 1940 and 2108
- Biotin ELISA Results CD32a-R167 (CD32a-R167 [4]): 4134 and 3245 and 4916
- Biotin ELISA Results CD32a-H167 (CD32a H167 [5]): 3965 and 4173 and 4715
- Biotin ELISA Results CD16a-158F (CD16a158F [6]): 1915 and 592 and 1294
- Biotin ELISA Results CD3ed (CD3ed [7]): 2134 and 3894 and 2741
- Biotin ELISA Results No Protein [8]: 2129 and 3223 and 1542
- Biotinylated Ligand ELISA-CD16a158V Binding (RLU) (CD16a158V [9]): C (a relative luminescence value (RLU) of 1,000-10,000)
- Biotinylated Ligand ELISA-CD16a158F Binding (RLU) (CD16a158F [10]): C (a relative luminescence value (RLU) of 1,000-10,000)

Compound: Daratumumab Control: "'control' is an antibody that went through the same procedure except using DMSO only as opposed to a compound"
- MATE ELISA Results CD32b (CD32b [11]): 9479 and 9358 and 9228
- MATE ELISA Results CD16a 158V (CD16a 158V): 1407940 and 1365053 and 1337882
- MATE ELISA Results CD32a R157 (CD32a-R167 [12]): 125444 and 122409 and 116704
- MATE ELISA Results CD38 (CD38): 2893900 and 2774268 and 2739576
- MATE ELISA Results CD32a H167 (CD32a H167 [13]): 485766 and 481839 and 470053
- MATE ELISA Results CD16a 158F (CD16a158F [14]): 82022 and 81780 and 84907
- MATE ELISA Results CD16b (CD16b): 3125 and 3086 and 3079
- MATE ELISA Results CD3ed (CD3ed [15]): 219 and 257 and 505

Compound: Rituximab (UDP-GalNAz labeled)
- CD16a158V Normalized* Response (%) (CD16a158V [16]): C (an ELISA result of 15-25% relative to Rituximab)
- CD16a158F Normalized* Response (%) (CD16a158F [17]): C (an ELISA result of 15-25% relative to Rituximab)

Compound: O=C(CCCC[C@@H]1SC[C@@H]2NC(=O)N[C@@H]21)NCCOCCOCCOCCOCCOCCOCCOCCOCCn1cc(-c2cccc(NC(=O)N3CCC4(CC3)NC(=O)N(c3ccccc3)C4=O)c2)nn1 [Compound I-27]
- pKd (CD16a158F [1]): 6.30 to 7.00
- ACDP (primary monocytes)-normalized phagocytosis score (primary monocytes): A (a normalized phagocytosis score of >2.0)
- ACDP (CD16a negative THP1 cells)-normalized phagocytosis score [18]: B (a normalized phagocytosis score of 1.5-2.0)
- Biotinylated Ligand ELISA-CD16a158V Binding (RLU) (CD16a158V [9]): B (a relative luminescence value (RLU) of 10,000-100,000)
- Biotinylated Ligand ELISA-CD16a158F Binding (RLU) (CD16a158F [10]): B (a relative luminescence value (RLU) of 10,000-100,000)
